Data from ChEMBL document CHEMBL6153020, “Identification of Isoliensinine as a Ferroptosis Suppressor with Iron-Chelating Activity” (J Nat Prod, 2025).
The source made the active and inactive calls. The rule behind the calls is not given here.

What was measured:
HT-1080 [1] = experiment: Anti-ferroptosis activity against RSL3-induced ferroptosis in human HT-1080 cells assessed as increase in cell viability at 10 uM incubated overnight in the presence of ML385 by cell counting kit 8 method; format: functional, cell-based
HT-1080 [2] = experiment: Anti-ferroptosis activity against RSL3-induced ferroptosis in human HT-1080 cells assessed as reduction in GPX4 level at 5 uM by Western blot analysis; format: functional, cell-based
HT-1080 [3] = experiment: Anti-ferroptosis activity against RSL3-induced ferroptosis in human HT-1080 cells assessed as increase in cell viability at 10 uM incubated for 24 hrs by CCK-8 assay; format: functional, cell-based
HT-1080 [4] = experiment: Anti-ferroptosis activity against IKE-induced ferroptosis in human HT-1080 cells assessed as effect on GSH/GSSG ratio at 5 uM; format: functional, cell-based
HT-1080 [5] = experiment: Anti-ferroptosis activity against IKE-induced ferroptosis in human HT-1080 cells assessed as increase in cell viability at 10 uM incubated for 24 hrs by SYTOX Green staining based light microscopy analysis; format: functional
HT-1080 [6] = experiment: Anti-ferroptosis activity against RSL3-induced ferroptosis in human HT-1080 cells assessed as restoration of lipid peroxidation level by BODIPY 581/591 C11 dye based flow cytometry analysis; format: functional, cell-based
HT-1080 [7] = experiment: Anti-ferroptosis activity against FeCl3/8HQ-induced ferroptosis in human HT-1080 cells assessed as increase in cell viability at 1 to 50 uM incubated for 24 hrs by cell counting kit 8 method; format: functional, cell-based; details: dose 1-50 µM
HT-1080 [8] = experiment: Anti-ferroptosis activity against RSL3-induced ferroptosis in human HT-1080 cells assessed as reduction in MDA level; format: functional, cell-based
HT-1080 [9] = experiment: Anti-ferroptosis activity against RSL3-induced ferroptosis in human HT-1080 cells assessed as upregulation of PTGS2 mRNA expression by qPCR analysis; format: functional, cell-based
HT-1080 [10] = experiment: Anti-ferroptosis activity against RSL3-induced ferroptosis in human HT-1080 cells assessed as protection against cell death at 10 uM incubated for 24 hrs by SYTOX Green staining based light microscopy analysis; format: functional
[11] = Antioxidant activity assessed as ABTS radical scavenging activity at 5 uM by ABTS method; format: functional
HT-1080 [12] = experiment: Anti-ferroptosis activity against IKE-induced ferroptosis in human HT-1080 cells assessed as increase in cell viability at 1 to 50 uM incubated for 24 hrs by cell counting kit 8 method; format: functional, cell-based; details: dose 1-50 µM
HT-1080 [13] = experiment: Anti-ferroptosis activity against RSL3-induced ferroptosis in human HT-1080 cells assessed as increase in cell viability at 50 uM incubated for 24 hrs by cell counting kit 8 method; format: functional, cell-based
HT-1080 [14] = experiment: Anti-ferroptosis activity against IKE-induced ferroptosis in human HT-1080 cells assessed as inhibition of lipid peroxidation level at 5 uM by BODIPY 581/591 C11 dye based flow cytometry analysis; format: functional, cell-based
HT-1080 [15] = experiment: Anti-ferroptosis activity against FINO2-induced ferroptosis in human HT-1080 cells assessed as decrease in cell death at 5 uM incubated for 24 hrs by SYTOX Green staining based light microscopy analysis; format: functional
HT-1080 [16] = experiment: Anti-ferroptosis activity against RSL3-induced ferroptosis in human HT-1080 cells assessed as reduction in ROS level by DCFH-DA dye based analysis; format: functional, cell-based
HT-1080 [17] = experiment: Anti-ferroptosis activity against FINO2-induced ferroptosis in human HT-1080 cells assessed as increase in cell viability at 1 to 50 uM incubated for 24 hrs by cell counting kit 8 method; format: functional, cell-based; details: dose 1-50 µM
HT-1080 [18] = experiment: Anti-ferroptosis activity against IKE-induced ferroptosis in human HT-1080 cells assessed as effect on GSH level at 5 uM; format: functional, cell-based
HT-1080 [19] = experiment: Anti-ferroptosis activity against RSL3-induced ferroptosis in human HT-1080 cells assessed as increase in cell viability at 5 uM incubated for 24 hrs by cell counting kit 8 method; format: functional, cell-based
HT-1080 [20] = experiment: Anti-ferroptosis activity against FINO2-induced ferroptosis in human HT-1080 cells assessed as increase in cell viability at 20 uM incubated overnight by cell counting kit 8 method; format: functional, cell-based
[21] = Toxicity in C57BL/6 mouse assessed as change in AST level in serum at 10 mg/kg, ip pretreated with iron sulfate for 8 hrs followed by compound administered for 30 min by automatic biochemical analyzer; format: organism-based; details: in vivo, 30 h
HT-1080 [22] = experiment: Anti-ferroptosis activity against FINO2-induced ferroptosis in human HT-1080 cells assessed as reduction in MDA level at 5 uM; format: functional, cell-based
Mus musculus [23] = experiment: Protection against acute iron overload in male C57BL/6 mouse model assessed as reduction in liver iron content at 10 mg/kg, ip pretreated with iron sulfate for 8 hrs followed by compound administered for 30 min by Perls Prussian blue staining; format: functional, organism-based
HT-1080 [24] = experiment: Anti-ferroptosis activity against FeSO4/8HQ-induced ferroptosis in human HT-1080 cells assessed as reduction in Fe2+ level at 5 uM by FerroOrange staining based live-cell fluorescent imaging; format: functional
HT-1080 [25] = experiment: Anti-ferroptosis activity against FINO2-induced ferroptosis in human HT-1080 cells assessed as reduction in total iron level at 5 uM by live-cell fluorescent imaging; format: functional, cell-based
Mus musculus [26] = experiment: Anti-ferroptotic activity against acute iron overload in male C57BL/6 mouse model assessed as reduction in MDA level in liver at 10 mg/kg, ip pretreated with iron sulfate for 8 hrs followed by compound administered for 30 min; format: functional, organism-based
HT-1080 [27] = experiment: Anti-ferroptosis activity against FeSO4/8HQ-induced ferroptosis in human HT-1080 cells assessed as reduction in total iron level at 5 uM by live-cell fluorescent imaging; format: functional, cell-based
HT-1080 [28] = experiment: Anti-ferroptosis activity against MnCl2-induced ferroptosis in human HT-1080 cells assessed as increase in cell viability at 5 uM incubated for 24 hrs by cell counting kit 8 method; format: functional, cell-based
HT-1080 [29] = experiment: Anti-ferroptosis activity against FINO2-induced ferroptosis in human HT-1080 cells assessed as upregulation of PTGS2 mRNA level at 5 uM by qPCR analysis; format: functional, cell-based
[30] = Toxicity in C57BL/6 mouse assessed as change in ALT level in serum at 10 mg/kg, ip pretreated with iron sulfate for 8 hrs followed by compound administered for 30 min by automatic biochemical analyzer; format: organism-based; details: in vivo, 30 h
HT-1080 [31] = experiment: Anti-ferroptosis activity against ZnCl2-induced ferroptosis in human HT-1080 cells assessed as increase in cell viability at 5 uM incubated for 24 hrs by cell counting kit 8 method; format: functional, cell-based
Mus musculus [32] = experiment: Protection against acute iron overload in male C57BL/6 mouse model assessed as reduction in hepatic FTL level at 10 mg/kg, ip pretreated with iron sulfate for 8 hrs followed by compound administered for 30 min by Western blot analysis; format: functional, organism-based
Mus musculus [33] = experiment: Anti-ferroptotic activity against acute iron overload in male C57BL/6 mouse model assessed as reduction in […] mRNA expression level in liver at 10 mg/kg, ip pretreated with iron sulfate for 8 hrs followed by compound administered for 30 min by qPCR analysis; format: functional, organism-based
HT-1080 [34] = experiment: Anti-ferroptosis activity against FeSO4/8HQ-induced ferroptosis in human HT-1080 cells assessed as reduction in MDA level at 5 uM; format: functional, cell-based
HT-1080 [35] = experiment: Anti-ferroptosis activity against FeCl3/8HQ-induced ferroptosis in human HT-1080 cells assessed as reduction in total iron level at 5 uM by live-cell fluorescent imaging; format: functional, cell-based
HT-1080 [36] = experiment: Anti-ferroptosis activity against FINO2-induced ferroptosis in human HT-1080 cells assessed as reduction in Fe2+ oxidation level at 5 uM by colorimetric method; format: functional, cell-based
[37] = Toxicity in C57BL/6 mouse assessed as change in LDH level in serum at 10 mg/kg, ip pretreated with iron sulfate for 8 hrs followed by compound administered for 30 min by automatic biochemical analyzer; format: organism-based; details: in vivo, 30 h
Mus musculus [38] = experiment: Protection against male acute iron overload C57BL/6 mouse model assessed as reduction in hepatic iron content at 10 mg/kg, ip pretreated with iron sulfate for 8 hrs followed by compound administered for 30 min; format: functional, organism-based
HT-1080 [39] = experiment: Anti-ferroptosis activity against FeCl3/8HQ-induced ferroptosis in human HT-1080 cells assessed as reduction in MDA level at 5 uM; format: functional, cell-based
HT-1080 [40] = experiment: Anti-ferroptosis activity against FeSO4/8HQ-induced ferroptosis in human HT-1080 cells assessed as increase in cell viability at 1 to 10 uM incubated for 24 hrs by cell counting kit 8 method; format: functional, cell-based; details: dose 1-10 µM
Mus musculus [41] = experiment: Protection against acute iron overload in male C57BL/6 mouse model assessed as reduction in spleen iron content at 10 mg/kg, ip pretreated with iron sulfate for 8 hrs followed by compound administered for 30 min by Perls Prussian blue staining; format: functional, organism-based
HT-1080 [42] = experiment: Anti-ferroptosis activity against FeCl3/8HQ-induced ferroptosis in human HT-1080 cells assessed as increase in cell viability at 5 uM incubated for 24 hrs by cell counting kit 8 method; format: functional, cell-based
Mus musculus [43] = experiment: Protection against acute iron overload in male C57BL/6 mouse model assessed as reduction in hepatic FTH level at 10 mg/kg, ip pretreated with iron sulfate for 8 hrs followed by compound administered for 30 min by Western blot analysis; format: functional, organism-based
[44] = Toxicity in C57BL/6 mouse assessed as change in CK level in serum at 10 mg/kg, ip pretreated with iron sulfate for 8 hrs followed by compound administered for 30 min by automatic biochemical analyzer; format: organism-based; details: in vivo, 30 h

Compound: C/C=C/c1ccc(OC(C)=O)c(OC)c1
- Activity (HT-1080 [1]): Active
- Activity (HT-1080 [2]): inactive
- Activity (HT-1080 [3]): Active; Strong Protection
- Activity (HT-1080 [4]): Active
- Activity (HT-1080 [5]): Active
- Activity (HT-1080 [6]): Active
- Activity (HT-1080 [7]): inactive
- Activity (HT-1080 [8]): Active
- Activity (HT-1080 [9]): Active
- Activity (HT-1080 [10]): Active
- Activity [11]: inactive
- Activity (HT-1080 [12]): Active
- Activity (HT-1080 [13]): Active
- Activity (HT-1080 [14]): Active
- Activity (HT-1080 [15]): inactive
- Activity (HT-1080 [16]): Active
- Activity (HT-1080 [17]): inactive
- Activity (HT-1080 [18]): Active

Compound: C=CC(C)(C)c1cc(/C=C/C(=O)c2ccc(O)cc2)c(OC)cc1O
- Activity (HT-1080 [19]): Active
- Activity (HT-1080 [1]): Active
- Activity (HT-1080 [2]): inactive
- Activity (HT-1080 [3]): Active; Strong Protection
- Activity (HT-1080 [4]): Active
- Activity (HT-1080 [5]): Active
- Activity (HT-1080 [6]): Active
- Activity (HT-1080 [7]): inactive
- Activity (HT-1080 [8]): Active
- Activity (HT-1080 [9]): Active
- Activity (HT-1080 [10]): Active
- Activity [11]: inactive
- Activity (HT-1080 [12]): Active
- Activity (HT-1080 [14]): Active
- Activity (HT-1080 [15]): inactive
- Activity (HT-1080 [16]): Active
- Activity (HT-1080 [17]): inactive
- Activity (HT-1080 [18]): Active

Compound: COc1cc2c(cc1OC)[C@@H](Cc1ccc(O)c(Oc3cc4c(cc3OC)CCN(C)[C@@H]4Cc3ccc(O)cc3)c1)N(C)CC2
- Activity (HT-1080 [20]): inactive

Compound: COc1ccc(C[C@@H]2c3cc(Oc4cc(C[C@H]5c6cc(OC)c(OC)cc6CCN5C)ccc4O)c(OC)cc3CCN2C)cc1
- Activity (HT-1080 [20]): inactive

Compound: COc1ccc(C[C@@H]2c3cc(Oc4cc(C[C@@H]5c6cc(O)c(OC)cc6CCN5C)ccc4O)c(OC)cc3CCN2C)cc1 [ISOLIENSININE]
- Activity [21]: Non-toxic
- Activity (HT-1080 [22]): Active
- Activity (Mus musculus [23]): Active
- Activity (HT-1080 [24]): Active
- Activity (HT-1080 [25]): Active
- Activity (Mus musculus [26]): Active
- Activity (HT-1080 [19]): Active
- Activity (HT-1080 [27]): Active
- Activity (HT-1080 [28]): inactive
- Activity (HT-1080 [1]): Active
- Activity (HT-1080 [29]): Active
- Activity [30]: Non-toxic
- Activity (HT-1080 [31]): inactive
- Activity (Mus musculus [32]): Active
- Activity (HT-1080 [2]): inactive
- Activity (Mus musculus [33]): Active
- Activity (HT-1080 [34]): Active
- Activity (HT-1080 [35]): Active
- Activity (HT-1080 [36]): Active
- Activity (HT-1080 [3]): Active; Strong Protection
- Activity [37]: Non-toxic
- Activity (HT-1080 [4]): Active
- Activity (Mus musculus [38]): Active
- Activity (HT-1080 [39]): Active
- Activity (HT-1080 [40]): Active
- Activity (HT-1080 [5]): Active
- Activity (HT-1080 [6]): Active
- Activity (HT-1080 [7]): Active
- Activity (Mus musculus [41]): Active
- Activity (HT-1080 [8]): Active
- Activity (HT-1080 [9]): Active
- Activity (HT-1080 [42]): inactive
- Activity (HT-1080 [10]): Active
- Activity [11]: inactive
- Activity (HT-1080 [12]): Active
- Activity (HT-1080 [14]): Active
- Activity (Mus musculus [43]): Active
- Activity [44]: Non-toxic
- Activity (HT-1080 [15]): Active
- Activity (HT-1080 [16]): Active
- Activity (HT-1080 [17]): Active
- Activity (HT-1080 [18]): Active
